Data set [1] has as its system sterile-filtered fecal exoenzyme fraction. The data set can be described thus: Xenobiotic depletion in the sterile-filtered fecal exoenzyme fraction. Type of data set: in vitro ADME, human. The note with it: anaerobic, 24 h. On the procedure:
(§1) To further purify the extracellular enzyme (exoenzyme) fraction, the supernatant was centrifuged at 18,000 × g for 3 min at 4 °C. The resulting preparation was then sterile-filtered three times through 0.22-µm syringe filters to ensure complete removal of remaining microbial cells. The sterile exoenzyme fraction was stored anaerobically at −70 °C until further use. The middle layer, which contained the gut bacteria, was collected and referred to as the bacterial colon model. The isolated microbiota was then diluted in sterile 50% (v/v) glycerol and stored at −70 °C under anaerobic conditions.
(§2) To enable parameter-based comparison of compound conversion across incubation matrices, apparent first-order kinetic parameters were calculated from precursor compound depletion data. Only quantifiable time points were considered. Because these values represent apparent kinetic estimates derived from a limited number of sampling points, they were interpreted primarily for comparative purposes. Detailed experimental conditions and analytical parameters are provided in Supplementary Tab. S2.
(§3) To evaluate the metabolic capabilities of the human colon model presented here, a panel of structurally diverse xenobiotics was selected based on microbial biotransformation reactions reported in the literature (Fig. 7, Supplementary Fig. S2). […] Together, these reference substrates served as model compounds covering major gut microbial transformation chemistries, enabling a matrix-to-matrix performance evaluation of the colon model. […] Product levels were estimated using the nitrendipine calibration and are therefore semi-quantitative.
(§4) Table S1: Composition of the modified SHIME®-based regeneration media.
(§5) To evaluate microbial xenobiotic metabolism under defined conditions, incubations were conducted using model substrates representing major biotransformation classes: 4- […]
(§6) reduction), and nitrendipine (nitro group reduction). Reaction mixtures were prepared under […]
(§7) rich substrate formulation with 1 g L-1 mucin, pectin, and xylan (substrate control), (ii) 150 µL pooled fecal suspension (three individual pools with n = 3 donors each, 1:10 diluted in SHIME® saline) + 60 µL fiber-rich substrate, (iii) 300 µL pooled exoenzyme fraction (three individual pools with n = 3 donors each, 1:10 in SHIME® saline), and (iv) 150 µL bacterial colon model + 60 µL fiber-rich substrate. All incubations contained 500 µM of the respective test compound.
(§8) At defined time points, samples were mixed 1:1 (v/v) with ethanol, vortexed, and centrifuged […]
(§9) (18,000 × g, 3 min). The resulting supernatant was combined 1:1 (v/v) with acetonitrile (100 %) […]
(§10) The clarified supernatant was diluted with the mobile phase prior to injection. Non-polar and UV-absorbing compounds were analyzed on a Knauer Eurospher II C8 column (250 × 4 mm, 5 µm) with a C8 guard cartridge using an AZURA CT 2 system (Knauer, Berlin, Germany) equipped with a SpectraSystem SCM1000 degasser, P4000 pump, AS3000 autosampler, and UVD 2.1L detector. Paracetamol was analyzed on a Shodex Asahipak NH2P-50 3E column (Showa Denko, Japan) with a corresponding guard column and an RI- […]
(§11) Chromatographic parameters, including mobile-phase composition, column temperature, flow rate, and detection wavelength are summarized in Suppl. Tab. S1. Quantification of parent compounds and metabolites was performed by […]

Assay in data set [2]: as above
The note with it: human, sterile-filtered fecal exoenzyme fraction (cell-free), 500 µM test compound, anaerobic, 37°C, 24 h, three donor pools, read-out: half-life (t1/2) (converted). Type of data set: in vitro ADME, human. On the procedure:
as §1, §2, §3, §4, §5, §6, §7, §8, §9, §10, §11

The next data set is described as follows: physchem. The procedure: as §2, §4, §5
as §7, with “reduction), and nitrendipine (nitro group reduction). Reaction mixtures were prepared under anaerobic conditions (37°C, 24 h) as follows: (i) 210 µL SHIME® saline containing the fiber-rich substrate formulation” for “rich substrate formulation”
as §8, §9
The clarified supernatant was diluted with the mobile phase prior to injection. Non-polar and UV-absorbing compounds were analyzed on a Knauer Eurospher II C8 column (250 × 4 mm, 5 µm) with a C8 guard cartridge using an AZURA CT 2 system (Knauer, Berlin, Germany) equipped with a SpectraSystem SCM1000 degasser, P4000 pump, AS3000 autosampler, and UVD 2.1L detector. Paracetamol was analyzed on a Shodex Asahipak NH2P-50 3E column (Showa Denko, Japan) with a corresponding guard column and an RI-101 detector (Ercatech AG, Germany). Chromatographic parameters, including mobile-phase composition, column temperature, flow rate, and detection wavelength are summarized in Suppl. Tab. […]. Quantification of parent compounds and metabolites was performed by external calibration using analytical reference standards.
(§12) Table S2: Chromatographic conditions for HPLC-based detection of selected xenobiotics and their microbial transformation products. Analytes were separated on either C8 or amino columns under compound-specific conditions. Mobile phases consisted of acetonitrile (ACN) with acidic modifiers and were operated under isocratic flow. Detection wavelengths correspond to the absorbance maxima […]
(§13) Column Mobile phase Tempera Flow rate UV detection […]
To confirm the identity of selected biotransformation products, representative samples were analyzed by liquid chromatography-mass spectrometry (LC-MS). Samples were mixed 1:1 (v/v) with ethanol and centrifuged (18,000 × g, 5 min). From the resulting supernatant, 50 µL were diluted in 450 µL H₂O: ACN (70:30, v/v). Prior to analysis, samples were filtered through

A further data set concerns bacterial colon model. Briefly: in vitro. Conditions: for apparent first-order rate constant (k): 500 µM. The procedure:
(§14) Our model was based on the isolation of intact bacterial communities from human feces. Bacterial isolation was performed using a modified density gradient centrifugation protocol first described by Hevia et al. ([2015]). To detach bacteria adhering to particulate matter and embedded within fecal biofilms, 0.001% (w/v) cetyltrimethylammonium bromide (CTAB) was added to each diluted fecal sample 30 min prior to further processing (Macfarlane et al. [1997]). All steps involving open sample handling were conducted under strictly anaerobic conditions (79% N2, 19% CO2, 2% H2) within a vinyl anaerobic chamber (Coy Laboratory Products, Grass Lake, Michigan, USA). Samples from three donors were randomly pooled for each preparation to reduce variability among individuals. From each pooled and diluted fecal suspension, 15 mL were layered onto 3.5 mL of 55% (w/v) Nycodenz® (Serumwerk Bernburg AG, Bernburg, Germany) in anaerobic centrifuge tubes. The samples were then centrifuged at 4000 × g for 30 min at room temperature.
(§15) To further purify the extracellular enzyme (exoenzyme) fraction, the supernatant was centrifuged at 18,000 × g for 3 min at 4 °C. The resulting preparation was then sterile-filtered three times through 0.22-µm syringe filters to ensure complete removal of remaining microbial cells. The sterile exoenzyme fraction was stored anaerobically at −70 °C until further use. The middle layer, which contained the gut bacteria, was collected and referred to as the bacterial colon model. The isolated microbiota was then diluted in sterile 50% (v/v) glycerol and stored at −70 °C under anaerobic conditions. Prior to use in experiments, the cryopreserved cells were washed three times with modified SHIME® saline (18,000 × g, 3 min, 4 °C) to remove any remaining Nycodenz®, glycerol, and particulate material. The final cell suspension was adjusted to an optical density at 600 nm (OD600) of 10, corresponding to approximately 1.43 × 10^10 cells mL^−1, as determined microscopically using a Neubauer counting chamber (Hager et al. [2025]). This microbial density was about 16% of the mean in vivo bacterial concentration in the human colon, estimated at 8.8 × 10^10 cells mL^−1 (assuming a fecal density of 1.04 g mL^−1 (Sender et al. [2016])).
as §2
(§16) To evaluate the metabolic capabilities of the human colon model presented here, a panel of structurally diverse xenobiotics was selected based on microbial biotransformation reactions reported in the literature (Fig. 7, Supplementary Fig. S2). […] Together, these reference substrates served as model compounds covering major gut microbial transformation chemistries, enabling a matrix-to-matrix performance evaluation of the colon model. All compounds were incubated anaerobically for 24 h with pooled human fecal slurry, the bacterial colon model, and the sterile-filtered fecal exoenzyme fraction, derived from three independent donor pools (n = 3 each).

The nature of data set [3]: Xenobiotic depletion in the bacterial colon model, anaerobic incubation. Conditions: human. The procedure: as §14, §15, §2, §16
For data set [4], the system named is pooled human fecal slurry. The data set can be described thus: in vitro. The procedure: as §2, §3, §4, §5, §6, §7, §8, §9, §10
(§17) Chromatographic parameters, including mobile-phase composition, column temperature, flow rate, and detection wavelength are summarized in Suppl. Tab. S1. Quantification of parent compounds and metabolites was performed by external calibration using analytical reference standards.
as §12, §13

The nature of a further data set: in vitro. Conditions: human. The procedure: as §2, §3, §4, §5, §6, §7, §8, §9, §10, §17, §12, §13
Setting [5] is: 500 µM test compound, 37°C, three donor pools.
[6] abbreviates: buffer, 500 µM test compound, anaerobic, 37°C, 24 h.
Setting [7] is: fecal slurry, 500 µM test compound, anaerobic, 37°C, 24 h, three donor pools.

The results in this text go back to PMC13222238, “Development of a gut microbiota model for the analysis of bacterial modifications of xenobiotics” (Applied Microbiology and Biotechnology, 2026).

As for `CCOC(=O)C1=C(C)NC(C)=C(C(=O)OC)C1c1cccc([N+](=O)[O-])c1` (centres unmarked) [Nitrendipine, nitrendipine], the “apparent first-order rate constant (k)” value was 0.002 h⁻¹ in data set [1] (setting [5]); 0.0009 h⁻¹ in the data set “physchem” (500 µM); 0.92 h⁻¹ in the data set with bacterial colon model (human); 0.44 h⁻¹ in data set [4] (human, 500 µM). The “conversion in the exoenzyme fraction (in words)” value in data set [1] is given as “no relevant conversion”. In addition, the half-life at 500 µM in data set [2] was more than 24 h; in “physchem” (buffer), more than 24 h; in data set [3], 0.75 h; in the data set “in vitro” it was 1.58 h.
In the case of `O=C(O)c1cc(/N=N/c2ccc(S(=O)(=O)Nc3ccccn3)cc2)ccc1O` [Sulfasalazine, sulfasalazine], the “apparent first-order rate constant (k)” value was found to be 0.003 h⁻¹ in data set [1] (setting [5]); 0.002 h⁻¹ in the data set “physchem” (500 µM); 1.20 h⁻¹ with bacterial colon model (human); 0.93 h⁻¹ in data set [4] (human, 500 µM). For the same compound, the half-life at 500 µM (in data set [2]; in the data set “physchem” (buffer)) was more than 24 h each time.
Take `CC1=C(CC(=O)O)c2cc(F)ccc2/C1=C\c1ccc([S+](C)[O-])cc1` (centres unmarked) [Sulindac, sulindac]: the “apparent first-order rate constant (k)” value in data set [1] (setting [5]) is 0.003 h⁻¹; in “physchem” (500 µM), 0.0003 h⁻¹; in the data set with bacterial colon model (human) it was 0.20 h⁻¹; in data set [4] (human, 500 µM), 0.12 h⁻¹. Moreover, the “conversion in the exoenzyme fraction (in words)” value in data set [1] is “no meaningful conversion”. Moreover, the half-life at 500 µM in data set [2] was more than 24 h; in “physchem” (buffer) it was more than 24 h; in data set [3] it was 3.47 h; in “in vitro”, 5.78 h.
Turning to `CC(=O)OCC(=O)NCCCOc1cccc(CN2CCCCC2)c1` [Roxatidine-acetate, roxatidine-acetate], the “apparent first-order rate constant (k)” value in data set [1] (setting [5]) worked out at 0.16 h⁻¹; in the data set “physchem” (500 µM), 0.005 h⁻¹; with bacterial colon model (human), 1.13 h⁻¹; in data set [4] (human, 500 µM) it was 1.16 h⁻¹. Further, the half-life at 500 µM was 4.33 h in data set [2], more than 24 h in “physchem” (buffer), 0.61 h in data set [3] and 0.6 h in the data set “in vitro”.
Take `O=C(N[C@H](CO)[C@H](O)c1ccc([N+](=O)[O-])cc1)C(Cl)Cl` [Chloramphenicol, chloramphenicol]: the “apparent first-order rate constant (k)” value is 0.003 h⁻¹ in data set [1] (setting [5]); 0.47 h⁻¹ in the data set on bacterial colon model (human); 0.45 h⁻¹ in data set [4] (human, 500 µM). Besides, the half-life at 500 µM in data set [2] is more than 24 h; in the data set “physchem” (buffer), more than 24 h; in data set [3], 1.47 h; in “in vitro”, 1.54 h.
Turning to `CC(=O)Nc1ccc(OC(C)=O)cc1` [4-Acetoxyacetanilide, 4-acetoxyacetanilide], the “apparent first-order rate constant (k)” value is 13.46 h⁻¹ in data set [1] (setting [5]), 0.02 h⁻¹ in “physchem” (setting [6]) and 15.38 h⁻¹ in data set [4] (setting [7]). For the same compound, the “half-life (t1/2)” value in data set [1] (setting [5]) was 3 min; in “physchem” (setting [6]), more than 24 h; in the data set with bacterial colon model (human), 1.8 min; in data set [4] (setting [7]) it was 3 min. The “conversion in the exoenzyme fraction (in words)” value in data set [1] is given as “clear hydrolytic activity”; in data set [1] (listed as 4-acetoxyacetanilide), “relevant activity”. In addition, in the data set with bacterial colon model, the “conversion in the bacterial colon model (in words)” value is listed as “rapidly degraded”. Moreover, the “conversion in fecal slurry (in words)” value in data set [4] (fecal slurry, anaerobic, 24 h) is listed as “rapidly degraded”.
